PubChem BioAssay (NCI)
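Following 48 hours of exposure in 96-well plates, responses at five concentrations were used to interpolate endpoints linearly. TGI: concentration producing complete growth inhibition.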

What was measured:
Test in all cases: NCI anticancer screen, dose series, 48 h
[1] = tested on: TK-10 renal
[2] = tested on: HCT-116 colon
[3] = tested on: SF-539 CNS
[4] = tested on: T-47D breast
[5] = tested on: HCT-15 colon
[6] = tested on: RXF 393 renal
[7] = tested on: UACC-257 melanoma
[8] = tested on: XF 498 CNS
[9] = tested on: 786-0 renal
[10] = tested on: NCI-H460 lung
[11] = tested on: LXFL 529 NSCLC
[12] = tested on: OVCAR-8 ovarian
[13] = tested on: DLD-1 colon
[14] = tested on: DU-145 prostate
[15] = tested on: A549 NSCLC
[16] = tested on: BT-549 breast
[17] = tested on: IGROV1 ovarian
[18] = tested on: HOP-92 NSCLC
[19] = tested on: SK-MEL-5 melanoma
[20] = tested on: SK-MEL-2 melanoma
[21] = tested on: K-562 leukemia
[22] = tested on: SNB-78 CNS
[23] = tested on: A498 renal
[24] = tested on: SK-OV-3 ovarian
[25] = tested on: SF-295 CNS
[26] = tested on: SN12C renal
[27] = tested on: KM20L2 colon
[28] = tested on: MDA-N
[29] = tested on: NCI/ADR-RES ovarian
[30] = tested on: OVCAR-5 ovarian
[31] = tested on: KM12 colon
[32] = tested on: SK-MEL-28 melanoma
[33] = tested on: U251 CNS
[34] = tested on: HL-60(TB) leukemia
[35] = tested on: OVCAR-3 ovarian
[36] = tested on: SR leukemia
[37] = tested on: SW-620 colon
[38] = tested on: OVCAR-4 ovarian
[39] = tested on: SNB-75 CNS
[40] = tested on: CAKI-1 renal
[41] = tested on: SF-268 CNS
[42] = tested on: MDA-MB-231 breast
[43] = tested on: MCF7 breast
[44] = tested on: RPMI-8226 leukemia
[45] = tested on: HOP-62 NSCLC
[46] = tested on: CCRF-CEM leukemia
[47] = tested on: NCI-H226 lung
[48] = tested on: COLO 205 colon
[49] = tested on: SNB-19 CNS
[50] = tested on: UO-31 renal
[51] = tested on: HOP-18 NSCLC
[52] = tested on: HS 578T breast
[53] = tested on: NCI-H23 lung
[54] = tested on: ACHN renal
[55] = tested on: HCC-2998 colon
[56] = tested on: DMS 273 small cell lung
[57] = tested on: NCI-H522 lung
[58] = tested on: MOLT-4 leukemia
[59] = tested on: PC-3 prostate
[60] = tested on: MALME-3M melanoma
[61] = tested on: MDA-MB-435
[62] = tested on: EKVX NSCLC
[63] = tested on: UACC-62 melanoma
[64] = tested on: HT29 colon
[65] = tested on: M14 melanoma
[66] = tested on: LOX IMVI melanoma
[67] = tested on: M19-MEL melanoma
[68] = tested on: DMS 114 small cell lung

Measured: TGI

CC(C)OC(=O)Nc1c([N+](=O)[O-])cc(C(F)(F)F)cc1[N+](=O)[O-]
98.2 µM: [25]
70.3 µM: [3]
> 46.4 µM: [21] | [58]
> 55.7 µM: [8]
62.3 µM: [6]
> 91.8 µM: [18]
40 µM: [39]
not listed: [67] | [68]
> 100 µM: all other assays above

Cc1c2ccccc2c(=O)n2c(-c3ccccn3)cccc12
not listed: [4] | [11] | [14] | [16] | [28] | [29] | [30] | [42] | [43] | [52] | [59] | [61]
> 100 µM: all other assays above

Cc1ccccc1NC(=O)C(=O)C(C1OC(=O)c2ccccc21)[N+](=O)[O-] (stereo unspecified)
not listed: [4] | [9] | [14] | [16] | [28] | [29] | [35] | [42] | [43] | [51] | [52] | [59] | [60] | [61]
> 100 µM: all other assays above
